For one experiment, the system named is female NOD mice. The conditions noted are these: acetate in drinking water from 5 weeks of age. Here is the method: To standardise microbiota, prior to beginning diets mice from multiple litters were mixed and randomly allocated to groups. The purified diets used were based on a balanced modification of the AIN93-G diet as described previously (Bajka et al., 2006). Mice were fed for 3-5 weeks starting at 3, 5 or 10 weeks of age. SCFAs in faeces, blood and caecal content were analysed as previously described in (Bajka et al., 2006). Diabetes was monitored as previously described (Mariño et al., 2009).
To determine whether oral administration of acetate (to increase its concentration in the circulation) could modulate disease progression, acetate was added to the drinking water of NOD female mice.

Another experiment has as its system pancreatic islets. The experiment in a line: Insulitis scoring of pancreatic islets. As to conditions: 10 weeks of age, 5 weeks after starting acetate treatment. The class given is in vivo, mouse. From the text:
Pancreatic tissue was processed and stained using standard procedures. For insulitis scoring, pancreata sections were taken at 3 […] (100 μm apart). At least 100 islets were scored from 5 to 15 mice. Islets were graded according to the following system: Grade 0—no indication of insulitis, Grade 1—<25% infiltration, Grade 2—25-50% infiltration, Grade 3—50-75% infiltration, and Grade 4—>75% infiltration.

SMILES strings stand for the structures.

`CC(=O)[O-].[Na+]` [acetate, sodium acetate]: the development of diabetes result in the experiment on female NOD mice (vs controls) was “significantly delayed”. In the experiment with female NOD mice (at age 30 weeks), this compound displayed a T1D incidence of 40%. For the same compound, in the experiment with pancreatic islets, the “insulitis (islet infiltration)” value is “more pancreatic islets without immune cell infiltration, and fewer islets with high-grade infiltration”.

Values taken from patent US20250295617A1, “METABOLITES FOR TREATMENT AND PREVENTION OF AUTOIMMUNE DISEASE” (MONASH UNIVERSITY, priority 2016, published 2025).
